Measurements: patent US11945822B2, “Pyrazolo-triazine and/or pyrazolo-pxrimidine derivatives as selective inhibitor of cyclin dependent kinase” (QURIENT CO., LTD., priority 2018, dated 2024)

Legend:
CDK5/p25 = target: T1, CDK5/p25 (Homo sapiens, UniProt Q00535); assay: Enzymatic assay for CDK5 (FRET based LANCE Ultra kinase assay); assay type: biochemical; conditions: read-out: CDK5 enzymatic activity (IC50 range)
T1 construct: purchased Invitrogen PR8543B
Summary of the method: (§1)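 LANCE Ultra TR-FRET: ULight-MBP peptide (68 nM) with ATP at Km, […], 60 min at 23° C. EDTA plus Eu-anti-phospho-MBP added, another 60 min, then 665/615 nm emission read. Compounds tested as 8-dose 4-fold DMSO dilutions.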

CDK2/Cyclin A = target: T2, CDK2/Cyclin A (Homo sapiens, UniProt P24941); assay: Enzymatic assay for CDK2 (FRET based LANCE Ultra kinase assay); assay type: biochemical; conditions: read-out: CDK2 enzymatic activity (IC50 range)
T2 construct: purchased Invitrogen PV6290
Summary of the method: as §1

CDK1/Cyclin B = target: T3, CDK1/Cyclin B (Homo sapiens, UniProt P06493); assay: Enzymatic assay for CDK1 (FRET based LANCE Ultra kinase assay); assay type: biochemical; conditions: read-out: CDK1 enzymatic activity (IC50 range)
T3 construct: purchased Invitrogen PR4768C
T3 sequence (P06493 whole entry): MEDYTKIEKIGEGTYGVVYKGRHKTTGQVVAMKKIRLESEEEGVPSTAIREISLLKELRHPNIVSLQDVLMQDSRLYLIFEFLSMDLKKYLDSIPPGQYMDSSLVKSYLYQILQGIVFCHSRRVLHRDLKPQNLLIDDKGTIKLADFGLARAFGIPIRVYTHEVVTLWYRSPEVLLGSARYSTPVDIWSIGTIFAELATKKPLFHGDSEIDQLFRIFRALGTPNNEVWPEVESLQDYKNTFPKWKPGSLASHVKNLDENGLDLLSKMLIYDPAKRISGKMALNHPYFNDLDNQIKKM
T3 sequence (P14635 whole entry partner): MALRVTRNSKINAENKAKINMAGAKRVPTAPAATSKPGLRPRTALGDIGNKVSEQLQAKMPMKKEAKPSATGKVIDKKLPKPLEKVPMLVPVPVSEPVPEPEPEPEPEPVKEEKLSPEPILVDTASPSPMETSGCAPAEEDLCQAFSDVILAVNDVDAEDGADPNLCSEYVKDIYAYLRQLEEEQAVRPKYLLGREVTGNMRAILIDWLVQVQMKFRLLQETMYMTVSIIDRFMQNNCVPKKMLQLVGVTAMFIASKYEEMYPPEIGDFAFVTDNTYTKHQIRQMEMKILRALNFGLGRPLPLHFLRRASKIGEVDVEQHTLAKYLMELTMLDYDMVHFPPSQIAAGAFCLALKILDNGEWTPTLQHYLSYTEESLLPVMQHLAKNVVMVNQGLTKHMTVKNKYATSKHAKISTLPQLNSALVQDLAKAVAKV
Summary of the method: as §1

MOLT-4 = assay: Cellular MOLT-4 viability assay (CellTiter-Glo, 72 hours); assay type: cell-based; conditions: Homo sapiens, MOLT4 viability assay
Experimental: All cell lines were routinely tested for mycoplasma.
The effect of the CDK7 inhibitor to inhibit the growth of target cancer cells was evaluated through the 72 hours time period of viability assay. Briefly, the candidate cell line ware plated in 96 well plate at the following density of cells respectively. […] DMSO solvent without compound served as a control and final DMSO concentration less than 0.1%. After 72 hours of incubation at 37° C., 5% CO2 incubator, cells were analyzed for the viability using the CellTiter-Glo Luminescent Cell Viability Assay (Promega, Cat #G7570). All viability assays were performed in duplicate and Luminescence was read using an Envision (Perkin Elmer, USA). Data was analyzed using XLfit software.

CDK7/Cyclin H/MNAT1 = target: T4, CDK7/Cyclin H/MNAT1 (Homo sapiens, UniProt P50613); assay: Enzymatic assay for CDK7 (FRET based LANCE Ultra kinase assay); assay type: biochemical; conditions: for IC50: read-out: CDK7 enzymatic activity (IC50 range)
T4 construct: purchased Invitrogen PR6749B
T4 sequence (P50613 whole entry): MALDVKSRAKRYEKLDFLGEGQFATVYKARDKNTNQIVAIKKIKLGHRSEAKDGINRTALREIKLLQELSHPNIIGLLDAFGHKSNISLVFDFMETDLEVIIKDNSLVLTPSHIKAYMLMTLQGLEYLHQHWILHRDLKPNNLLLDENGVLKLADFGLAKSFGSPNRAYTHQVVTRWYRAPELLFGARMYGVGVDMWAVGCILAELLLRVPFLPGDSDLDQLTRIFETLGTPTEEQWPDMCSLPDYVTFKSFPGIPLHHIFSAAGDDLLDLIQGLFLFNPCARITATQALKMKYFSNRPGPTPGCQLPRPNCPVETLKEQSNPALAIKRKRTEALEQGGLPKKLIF
T4 sequence (P51946 whole entry partner): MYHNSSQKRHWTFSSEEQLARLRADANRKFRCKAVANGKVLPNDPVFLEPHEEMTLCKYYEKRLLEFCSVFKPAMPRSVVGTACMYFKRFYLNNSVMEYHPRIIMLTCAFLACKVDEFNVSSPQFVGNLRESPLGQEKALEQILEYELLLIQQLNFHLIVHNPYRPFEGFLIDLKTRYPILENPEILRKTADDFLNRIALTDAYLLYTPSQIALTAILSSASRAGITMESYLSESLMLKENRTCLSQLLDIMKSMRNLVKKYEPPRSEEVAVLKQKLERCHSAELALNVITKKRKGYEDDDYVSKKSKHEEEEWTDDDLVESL
T4 sequence (P51948 whole entry partner): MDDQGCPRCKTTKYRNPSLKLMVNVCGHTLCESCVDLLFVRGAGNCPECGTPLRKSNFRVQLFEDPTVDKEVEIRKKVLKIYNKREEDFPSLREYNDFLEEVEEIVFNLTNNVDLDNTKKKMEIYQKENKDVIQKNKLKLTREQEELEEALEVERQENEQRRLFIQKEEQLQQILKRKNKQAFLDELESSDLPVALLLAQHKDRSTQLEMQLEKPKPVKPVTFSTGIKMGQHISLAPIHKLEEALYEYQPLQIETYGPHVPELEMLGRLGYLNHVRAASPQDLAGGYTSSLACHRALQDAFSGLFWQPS
Summary of the method: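 Inhibition was measured at Km ATP by time-resolved FRET between a Eu anti-phospho antibody and a phosphorylated ULight peptide. The enzyme was the purified CDK7/cyclin complex, and data were curve-fitted.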

MV4-11 = assay: Cellular MV4-11 viability assay (CellTiter-Glo, 72 hours); assay type: cell-based; conditions: Homo sapiens
Summary of the method: (§2)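 Mycoplasma-tested cells, seeded at densities chosen for each line, received compound or DMSO vehicle (under 0.1% final) for 72 hours. Duplicate cultures were then read for viability by CellTiter-Glo luminescence.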

H460 = assay: Cellular H460 viability assay (CellTiter-Glo, 72 hours); assay type: cell-based; conditions: Homo sapiens, NCI-H460
Summary of the method: as §2

HCT116 = assay: Cellular HCT116 viability assay (CellTiter-Glo, 72 hours); assay type: cell-based; conditions: Homo sapiens, HCT-116
Summary of the method: as §2

T1 sequence (Q00535 whole entry): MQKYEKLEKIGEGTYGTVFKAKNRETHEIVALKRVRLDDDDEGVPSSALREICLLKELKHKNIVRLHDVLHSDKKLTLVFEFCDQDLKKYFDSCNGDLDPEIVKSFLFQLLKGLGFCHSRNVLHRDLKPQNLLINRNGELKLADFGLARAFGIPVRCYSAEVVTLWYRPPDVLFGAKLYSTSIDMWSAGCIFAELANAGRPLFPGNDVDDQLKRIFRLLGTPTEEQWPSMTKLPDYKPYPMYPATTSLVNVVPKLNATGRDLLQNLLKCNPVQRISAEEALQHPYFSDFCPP
T1 sequence (Q15078 99-307 partner limits assumed): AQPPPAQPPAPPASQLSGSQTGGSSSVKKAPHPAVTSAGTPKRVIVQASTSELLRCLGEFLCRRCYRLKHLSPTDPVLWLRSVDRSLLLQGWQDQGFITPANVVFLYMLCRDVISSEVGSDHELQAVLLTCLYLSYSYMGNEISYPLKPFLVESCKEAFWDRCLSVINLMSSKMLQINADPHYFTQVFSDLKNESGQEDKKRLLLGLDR

Row | Compound | IC50 (CDK5/p25) | IC50 (CDK2/Cyclin A) | IC50 (CDK1/Cyclin B) | IC50 (MOLT-4) | CDK1/CDK7: Selectivity of CDK7 inhibition over CDK1 inhibition (CDK7/Cyclin H/MNAT1) | CDK2/CDK7: Selectivity of CDK7 inhibition over CDK2 inhibition (CDK7/Cyclin H/MNAT1) | CDK5/CDK7: Selectivity of CDK7 inhibition over CDK5 inhibition (CDK7/Cyclin H/MNAT1) | IC50 (CDK7/Cyclin H/MNAT1) | IC50 (MV4-11) | IC50 (H460) | IC50 (HCT116)
1 | CCC(=O)Nc1cccc(Oc2cccc(CNc3nc(N4CCC(N)CC4)nc4c(C(C)C)cnn34)c2)c1 [Compound 86] | < 100 nM | 100 to 1000 nM | 100 to 1000 nM | 1 to 10 µM | B (B=less than 200 fold, but greater than 20 fold) | B (B=less than 200 fold, but greater than 20 fold) | C (C=less than 20 fold) | < 100 nM |  |  | 
2 | CC(C)c1cnn2c(NCc3cccc(Oc4ccc(F)c(NC(=O)CCCN(C)C)c4)c3)nc(N3CCC(N)CC3)nc12 [Compound 93] | 100 to 1000 nM | 100 to 1000 nM | > 1000 nM | 1 to 10 µM | A (A=greater than 200 fold) | B (B=less than 200 fold, but greater than 20 fold) | B (B=less than 200 fold, but greater than 20 fold) | < 100 nM |  |  | 
3 | CC(C)c1cnn2c(NCc3ccccc3-n3ccc(C(C)(C)O)n3)nc(N3CCC(O)(CN)CC3)nc12 [Compound 228] | 100 to 1000 nM | > 1000 nM | > 1000 nM |  | A (A=greater than 200 fold) | A (A=greater than 200 fold) | A (A=greater than 200 fold) | < 100 nM | < 1000 nM | < 1000 nM | < 1000 nM
4 | CC(C)c1cnn2c(NCc3ccccc3-c3ccc4ccccc4n3)cc(NCC3(O)CCNCC3)nc12 [Compound 208] | 100 to 1000 nM | < 100 nM | 100 to 1000 nM |  | B (B=less than 200 fold, but greater than 20 fold) | C (C=less than 20 fold) | B (B=less than 200 fold, but greater than 20 fold) | < 100 nM | < 1000 nM | < 1000 nM | < 1000 nM
5 | CN(C)c1cnn2c(NCc3ccccc3-n3cccn3)nc(N3CCC(N)CC3)nc12 [Compound 60] |  |  |  | > 10 µM |  |  |  |  |  | < 1000 nM | 
6 | CC(C)c1cnn2c(NCc3ccccc3-n3ccc4ccccc43)nc(N3CCC(N)CC3)nc12 [Compound 68] |  |  |  | 1 to 10 µM |  |  |  |  |  | < 1000 nM | 
7 | CC(C)C(=O)N1CCc2nn(-c3ccccc3CNc3nc(N4CCC(N)CC4)nc4c(C(C)C)cnn34)cc2C1 [Compound 148] | < 100 nM | 100 to 1000 nM | > 1000 nM |  | A (A=greater than 200 fold) | A (A=greater than 200 fold) | B (B=less than 200 fold, but greater than 20 fold) | < 100 nM | < 1000 nM | < 1000 nM | < 1000 nM
8 | CC(C)c1cnn2c(NCc3ccccc3-n3cccn3)nc(Oc3ccc(N4CCCC4)cc3)nc12 [Compound 162] |  |  |  | > 10 µM |  |  |  |  |  |  | 
9 | CC(C)c1cnn2c(NCc3ccccc3-c3ccco3)nc(N3CCC(N)CC3)nc12 [Compound 45] |  |  |  | 1 to 10 µM |  |  |  |  |  | < 1000 nM | 
10 | CC(C)c1cnn2c(NCc3ccccc3-n3ccc(C(C)(C)O)n3)nc(OCC3CCNCC3)nc12 [Compound 227] | > 1000 nM | > 1000 nM | > 1000 nM |  | A (A=greater than 200 fold) | A (A=greater than 200 fold) | A (A=greater than 200 fold) | < 100 nM | 1000 to 10000 nM | < 1000 nM | < 1000 nM
11 | CC1CCN(c2cnn(-c3cccc(Cl)c3CNc3nc(N4CCC(N)CC4)nc4c(C(C)C)cnn34)c2)CC1 [Compound 204] | > 1000 nM | > 1000 nM | > 1000 nM |  | A (A=greater than 200 fold) | A (A=greater than 200 fold) | A (A=greater than 200 fold) | < 100 nM | < 1000 nM | < 1000 nM | < 1000 nM
12 | CC(C)c1cnn2c(NCc3ccccc3-n3cc(C(=O)Nc4ccccc4)cn3)nc(N3CCC(N)CC3)nc12 [Compound 152] | < 100 nM | 100 to 1000 nM | > 1000 nM |  | A (A=greater than 200 fold) | B (B=less than 200 fold, but greater than 20 fold) | B (B=less than 200 fold, but greater than 20 fold) | < 100 nM | < 1000 nM | < 1000 nM | < 1000 nM
